For this data set the following is noted: Liquid, Closed cell (Static) method.

SMILES strings stand for the structures. Values joined by “and” are separate entries in the source; they are usually repeats but may differ in a detail not shown here. Equal values may be shown once. Numbers after ± are expanded uncertainties.

On to `CC(C)(C)O` [2-methylpropan-2-ol], for which the vapor or sublimation pressure (in general, the pressure of vapour in equilibrium with the condensed phase) (323.2 K) is 23.8 ± 1.4 kPa.
As to `CCC(C)O` (stereo not drawn) [butan-2-ol], for the setting “323.17 K”, the “vapor or sublimation pressure” value is given as 10.7 ± 1.4 kPa.
With `CCCC` [butane], the “vapor or sublimation pressure” value runs as follows: (323.12 K) 495 ± 2.2 kPa; (323.13 K) 495.3 ± 2.2 kPa; (323.15 K) 495.6 ± 1.8 kPa and 495.7 ± 2.2 kPa.
Consider `CCO` [ethanol], for which, where the note is “323.14 K”, the “vapor or sublimation pressure” value amounted to 29.4 ± 1.4 kPa.
As to `CO` [methanol], the “vapor or sublimation pressure” value (323.13 K) was 55.5 ± 1.4 kPa.
For `CC(C)O` [propan-2-ol], the “vapor or sublimation pressure” value (323.19 K) is 23.6 ± 0.2 kPa.

Source of the values: the NIST ThermoML archive (doi:10.1021/je7003947).
